Results taken from US20110178104A1, “Anti-Heparin Compounds” (POLYMEDIX INC., priority 2010, published 2011).

Legend:
[1] = test system: unfractionated heparin (UFH); test: aPTT clotting assay, UFH 0.2 U/mL in plasma (Example 7); type: biochemical; settings: UFH 0.2 U/mL in plasma
Protocol: aPTT clotting Assay. Unfractionated heparin was mixed with plasma at a final concentration of 0.2 U/mL. […] The ACL Elite Hemostasis analyzer (Beckman Coulter™) was used to add aPTT reagent (HemosIL SynthASil) to supplemented plasma. Clotting was initiated by addition of CaCl2 and time to clot was recorded.

enoxaparin (ENOX) = test: FXa chromogenic assay (absence of plasma), enoxaparin; settings: enoxaparin 0.1 μg/mL, absence of plasma
Protocol: Human antithrombin was mixed with an anticoagulant agent (a LMWH or fondaparinux); final concentrations were 0.22 μg/mL for the LMWHs and 0.07 μg/mL for fondaparinux. […] Absorbance was read every 30 seconds over a 4 minute period in a SpectraMax 250 instrument (Molecular Devices, Inc.). EC50 values are determined by a curve-fit program (SoftMax Pro) using the following formula:
FXa Chromogenic Assay (absence of plasma). Human antithrombin was mixed with an anticoagulant (a LMWH or fondaparinux); final concentrations were 0.1 μg/mL for the LMWHs and 0.02 μg/mL for fondaparinux. […] Absorbance was read every 30 seconds over a 4 minute period in a SpectraMax 250 instrument (Molecular Devices Inc.™) The slope of absorbance vs time was calculated for each compound concentration. EC50 values were determined using a curve fit program (GraphPad Prism 5).

fondaparinux (FONDAPX) = test: FXa chromogenic assay (absence of plasma), fondaparinux; settings: fondaparinux 0.02 μg/mL, absence of plasma

Structure (SMILES)	UFH (aPTT) EC50 [1] [µg/mL]	ENOX (FXa) EC50 (enoxaparin (ENOX)) [µg/mL]	FONDAPX (FXa) EC50 (fondaparinux (FONDAPX))
COc1ccc(NC(=O)[C@H](CCCCN)NC(=O)c2cc(NC(=O)[C@H](CCCCN)NC(=O)c3cc(NC(=O)[C@H](CCCCN)NC(=O)c4cc(NC(=O)[C@@H](N)CCCCN)ccc4OC)ccc3OC)ccc2OC)cc1C(=O)N[C@@H](Cc1ccc(O)cc1)C(=O)O [Compound 112]	2.71	0.257	0.717 µg/mL
COc1ccc(NC(=O)[C@H](CCCCN)NC(=O)c2cc(NC(=O)[C@H](CCCCN)NC(=O)c3cc(NC(=O)[C@H](CCCCN)NC(=O)c4cc(NC(=O)[C@@H](N)CCCCN)ccc4OC)ccc3OC)ccc2OC)cc1C(=O)N[C@@H](Cc1c[nH]c2ccccc12)C(=O)O [Compound 113]	4.89	0.2306	0.4025 µg/mL
COc1ccc(NC(=O)[C@H](CCCCN)NC(=O)c2cc(NC(=O)[C@@H](N)CCCCN)ccc2OC)cc1C(=O)N[C@@H](CCCCN)C(=O)Nc1ccc(OC)c(C(=O)N[C@@H](CCCCN)C(=O)Nc2ccc(OC)c(C(=O)N[C@H](C(=O)O)C(C)C)c2)c1 [Compound 114]	3.00	0.9758	12.56 µg/mL
COC(=O)c1cc(NC(=O)[C@H](CCCCN)NC(=O)c2cc(NC(=O)[C@H](CCCCN)NC(=O)c3cc(NC(=O)[C@H](CCCCN)NC(=O)c4cc(NC(=O)[C@@H](N)CCCCN)ccc4OC)ccc3OC)ccc2OC)ccc1OC [Compound 115]	2.44	0.7967	>20 µg/mL
COc1ccc(NC(=O)[C@H](CCCCN)NC(=O)c2cc(NC(=O)[C@H](CCCCN)NC(=O)c3cc(NC(=O)[C@H](CCCCN)NC(=O)c4cc(NC(=O)[C@@H](N)CCCCN)ccc4OC)ccc3OC)ccc2OCC(=O)O)cc1C(N)=O [Compound 117]	1.94	0.9281	7.052 µg/mL
COc1ccc(NC(=O)[C@H](CCCCN)NC(=O)c2cc(NC(=O)[C@H](CCCCN)NC(=O)c3cc(NC(=O)[C@H](CCCCN)NC(=O)c4cc(NC(=O)[C@@H](N)CCCCN)ccc4OCC(=O)O)ccc3OC)ccc2OC)cc1C(N)=O [Compound 119]	11.56	0.9421	13.39 µg/mL
COc1ccc(NC(=O)[C@H](CCCNC(=N)N)NC(=O)c2cc(NC(=O)[C@H](CCCNC(=N)N)NC(=O)c3cc(NC(=O)[C@H](C)NC(=O)CCCCNC(=N)N)ccc3OC)ccc2OC)cc1C(N)=O [Compound 120]	9.62	1.36	5.96 µg/mL
[2H]C([2H])(CN)C([2H])([2H])C[C@H](N)C(=O)Nc1ccc(OC)c(C(=O)N[C@@H](CCCCN)C(=O)Nc2ccc(OC)c(C(=O)N[C@@H](CCCCN)C(=O)Nc3ccc(OC)c(C(=O)N[C@@H](CCCCN)C(=O)Nc4ccc(OC)c(C(N)=O)c4)c3)c2)c1 [Compound 121]	7.48	0.4289	8.293 µg/mL
COc1ccc(NC(=O)[C@H](CCCCN)NC(=O)c2cc(NC(=O)[C@H](CCCCN)NC(=O)c3cc(NC(=O)[C@H](CCCCN)NC(=O)c4cc(NC(=O)[C@H](N)CCCCN)ccc4OC)ccc3OC)ccc2OC)cc1C(N)=O [Compound 122]	3.91	0.3254	6.037 µg/mL
COc1ccc(NC(=O)[C@H](CCCNC(=N)N)NC(=O)c2cc(NC(=O)[C@@H](N)CCCNC(=N)N)ccc2OC)cc1C(=O)N[C@@H](CCCNC(=N)N)C(=O)Nc1ccc(OC)c(C(=O)N[C@@H](CCCNC(=N)N)C(=O)Nc2ccc(OC)c(C(=O)N3CCCC3C(N)=O)c2)c1 (stereo partly drawn) [Compound 123]	>10	1.934	inactive
COc1ccc(NC(=O)[C@H](CCCCN)NC(=O)c2cc(NC(=O)[C@H](CCCCN)NC(=O)c3cc(NC(=O)[C@H](CCCCN)NC(=O)c4cc(NC(=O)[C@@H](N)CCCCN)cc(C(F)(F)F)c4)ccc3OC)ccc2OC)cc1C(N)=O [Compound 124]	7.39	0.418	6.94 µg/mL
COc1ccc(NC(=O)[C@H](CCCCN)NC(=O)c2cc(NC(=O)[C@H](CCCCN)NC(=O)c3cc(NC(=O)[C@H](CCCCN)NC(=O)c4cc(N)cc(C(F)(F)F)c4)ccc3OC)ccc2OC)cc1C(N)=O [Compound 125]	>10	0.9448	3.114 µg/mL
COc1ccc(NC(=O)[C@H](CCCCN)NC(=O)c2cc(NC(=O)[C@H](CCCCN)NC(=O)c3cc(NC(=O)[C@H](CCCCN)NC(=O)c4ccc(NC(=O)[C@@H](N)CCCCN)cc4)ccc3OC)ccc2OC)cc1C(N)=O [Compound 126]	9.07	0.7187	>20 µg/mL
COc1ccc(NC(=O)[C@H](CCCCN)NC(=O)c2cc(NC(=O)[C@H](CCCCN)NC(=O)c3cc(NC(=O)[C@H](CCCCN)NC(=O)c4cccc(N(C)C(=O)[C@@H](N)CCCCN)c4)ccc3OC)ccc2OC)cc1C(N)=O [Compound 127]	2.33	>15	inactive
CNc1cccc(C(=O)N[C@@H](CCCCN)C(=O)Nc2ccc(OC)c(C(=O)N[C@@H](CCCCN)C(=O)Nc3ccc(OC)c(C(=O)N[C@@H](CCCCN)C(=O)Nc4ccc(OC)c(C(N)=O)c4)c3)c2)c1 [Compound 128]	4.17	1.651	8.495 µg/mL
COc1ccc(NC(=O)[C@H](CCCCN)NC(=O)c2cc(NC(=O)[C@H](CCCCN)NC(=O)c3cc(NC(=O)[C@H](CCCCN)NC(=O)c4ccc(NC(=O)[C@@H](N)CCCCN)cc4OC)ccc3OC)ccc2OC)cc1C(N)=O [Compound 129]	2.47	0.3888	7.996 µg/mL
COc1ccc(NC(=O)[C@H](CCCCN)NC(=O)c2cc(NC(=O)[C@H](CCCCN)NC(=O)c3cc(NC(=O)[C@H](CCCCN)NC(=O)c4cc(NC(=O)[C@@H](N)CCCCN)ccc4SC)ccc3OC)ccc2OC)cc1C(N)=O [Compound 130]	2.50	0.3835	5.47 µg/mL
COc1ccc(NC(=O)[C@H](CCCCN)NC(=O)c2cc(NC(=O)[C@H](CCCCN)NC(=O)c3cc(NC(=O)[C@H](CCCCN)NC(=O)c4cnc(N)s4)ccc3OC)ccc2OC)cc1C(N)=O [Compound 131]	3.68	4.499	>20 µg/mL
COc1ccc(NC(=O)[C@H](CCCCN)NC(=O)c2cc(NC(=O)[C@H](CCCCN)NC(=O)c3cc(NC(=O)[C@H](CCCCN)NC(=O)c4cc(NC(=O)[C@@H](N)CCCCN)ccc4OC)ccc3SC)ccc2OC)cc1C(N)=O [Compound 132]	>10	>20	inactive
COc1ccc(NC(=O)[C@H](CCCCN)NC(=O)c2cc(NC(=O)[C@H](CCCCN)NC(=O)c3cc(NC(=O)[C@H](CCCCN)NC(=O)c4cc(NC(=O)[C@@H](N)CCCCN)ccc4OC)ccc3OC)ccc2SC)cc1C(N)=O [Compound 133]	>10	>20	inactive
COc1ccc(NC(=O)[C@H](CCCCN)NC(=O)c2cc(NC(=O)[C@@H](N)CCCCN)ccc2OC)cc1C(=O)N[C@@H](CCCCN)C(=O)Nc1ccc(OC)c(C(=O)N[C@@H](CCCCN)C(=O)Nc2ccc(SC)c(C(N)=O)c2)c1 [Compound 134]	2.84	1.829	inactive
COc1ccc(NC(=O)[C@@H](CCCNC(=N)N)NC(=O)c2cc(NC(=O)[C@@H](CCCNC(=N)N)NC(=O)c3cc(NC(=O)[C@@H](CCCNC(=N)N)NC(=O)c4cc(NC(=O)[C@H](N)CCCNC(=N)N)ccc4OC)ccc3OC)ccc2OC)cc1C(N)=O [Compound 135]	2.79	0.1581	0.7596 µg/mL
COc1ccc(NC(=O)[C@@H](CCCNC(=N)N)NC(=O)c2cc(NC(=O)[C@@H](CCCNC(=N)N)NC(=O)c3cc(NC(=O)[C@@H](CCCNC(=N)N)NC(=O)c4cc(NC(=O)[C@H](N)CCCNC(=N)N)ccc4OC)ccc3OC)ccc2OC)cc1C(N)=O [Compound 136]	2.91	0.194	0.8018 µg/mL
COc1ccc(NC(=O)[C@H](CCCCN)NC(=O)c2cc(NC(=O)[C@H](CCCCN)NC(=O)c3cc(NC(=O)[C@H](CCCCN)NC(=O)c4cc(NC(=O)[C@@H](N)CCCNC(N)=O)ccc4OC)ccc3OC)ccc2OC)cc1C(N)=O [Compound 137]	2.00	0.3761	4.025 µg/mL
COc1ccc(NC(=O)[C@H](CCCCN)NC(=O)c2cc(NC(=O)[C@H](CCCCN)NC(=O)c3cc(NC(=O)[C@H](CCCNC(N)=O)NC(=O)c4cc(NC(=O)[C@@H](N)CCCCN)ccc4OC)ccc3OC)ccc2OC)cc1C(N)=O [Compound 138]	2.15	0.3298	2.332 µg/mL
COc1ccc(NC(=O)[C@H](CCCCN)NC(=O)c2cc(NC(=O)[C@H](CCCNC(N)=O)NC(=O)c3cc(NC(=O)[C@H](CCCCN)NC(=O)c4cc(NC(=O)[C@@H](N)CCCCN)ccc4OC)ccc3OC)ccc2OC)cc1C(N)=O [Compound 139]	2.46	0.3196	2.485 µg/mL
